Tests used:
[1] = Pharmacokinetics in AAV8-Ctrl mice; conditions: C57BL/6J, mouse, serum, po, 16.5 mg/kg; for CL/F: CLz/F; for Vd/F: Vz/F; for half-life: t1/2z
[2] = Pharmacokinetics in AAV8-CYP3A4*1 mice; conditions: C57BL/6J, mouse, in vivo, po, 16.5 mg/kg; for CL/F: CLz/F; for Vd/F: Vz/F; for half-life: t1/2z
[3] = Pharmacokinetics in AAV8-CYP3A4*12 mice; conditions: C57BL/6J, mouse, serum, po, 16.5 mg/kg; for CL/F: CLz/F; for Vd/F: Vz/F; for half-life: t1/2z
[4] = Pharmacokinetics of aumolertinib and HAS-719 in SD rats; conditions: for AUC(0-t) / AUC(0-inf) / CL/F / Cmax / Tmax / Vd/F / half-life: Sprague-Dawley, rat, plasma, po, 11 mg/kg; for CL/F: CLz/F; for Vd/F: Vz/F; for half-life: t1/2z
CYP3A4.1 = CYP3A4.1 (Homo sapiens, UniProt P08684); assay: Enzyme kinetics of aumolertinib, recombinant CYP3A4.1; type: in vitro ADME; parameters: made in house; host or cells: Sf21 insect cells (baculovirus); conditions: CYP3A4.1, text value
CYP3A4.1, sequence (P08684 whole entry): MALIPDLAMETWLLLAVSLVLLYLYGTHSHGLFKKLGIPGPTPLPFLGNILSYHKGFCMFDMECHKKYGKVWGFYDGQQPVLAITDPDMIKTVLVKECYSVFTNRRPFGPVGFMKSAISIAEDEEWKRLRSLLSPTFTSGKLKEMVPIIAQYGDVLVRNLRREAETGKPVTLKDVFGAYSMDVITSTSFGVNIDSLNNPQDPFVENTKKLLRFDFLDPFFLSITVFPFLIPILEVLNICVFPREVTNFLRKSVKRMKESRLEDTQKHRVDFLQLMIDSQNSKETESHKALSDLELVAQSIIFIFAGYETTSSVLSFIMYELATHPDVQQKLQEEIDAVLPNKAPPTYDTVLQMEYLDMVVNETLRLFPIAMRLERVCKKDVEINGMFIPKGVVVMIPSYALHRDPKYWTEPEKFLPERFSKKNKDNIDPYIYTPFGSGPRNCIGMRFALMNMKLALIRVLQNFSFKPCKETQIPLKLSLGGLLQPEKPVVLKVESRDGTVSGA
Method: Specifically, first the pFastBac-CYPOR-CYP3A4 and CYPb5 plasmids are constructed, then the plasmids are transformed into DH10Bac cells to obtain the bacmid DNA. Subsequently, the bacmid DNA is transfected into Sf21 insect cells to generate high titer recombinant baculoviruses. After infecting the Sf21 cells with the high titer baculovirus, the cell suspension is collected. Finally, the cells are disrupted by sonication, and the microsomes are prepared by ultracentrifugation. To examine the expression of the target proteins and the CYP content, Western blot analysis and carbon monoxide difference spectroscopy were performed, respectively.
The reaction start, termination and sample processing are the same as described above.

[5] = aumolertinib 16.5 mg/kg oral alone (Aum)
[6] = carvedilol 7.5 mg/kg 0.5 h before aumolertinib 16.5 mg/kg oral (Car+Aum)
[7] = telmisartan 12 mg/kg 0.5 h before aumolertinib 16.5 mg/kg oral (Tel+Aum)
[8] = aumolertinib 11 mg/kg oral alone (Aum)
[9] = carvedilol 5 mg/kg oral 0.5 h before aumolertinib 11 mg/kg oral (Car + Aum)
[10] = telmisartan 8 mg/kg oral 0.5 h before aumolertinib 11 mg/kg oral (Tel + Aum)

## C=CC(=O)Nc1cc(Nc2nccc(-c3cn(C4CC4)c4ccccc34)n2)c(OC)cc1N(C)CCN(C)C [Aumolertinib]
[1]; [5]
  AUC(0-t): 1800 ng·h/mL
  AUC(0-inf): 1850 ng·h/mL
  CL/F: 148 mL/min/kg
  Cmax: 177 ± 59.9 ng/mL
  Tmax: 1.29 ± 0.49 h
  Vd/F: 98.8 ± 56.3 L/kg
  half-life: 8.21 ± 5.1 h
[1]; [6]
  AUC(0-t): 1970 ng·h/mL
  AUC(0-inf): 1980 ng·h/mL
  CL/F: 145 mL/min/kg
  Cmax: 99.8 ± 27.5 ng/mL
  Tmax: 17.7 ± 10.7 h
  Vd/F: 38.6 ± 23.7 L/kg
  half-life: 3.12 ± 1.79 h
[1]; [7]
  AUC(0-t): 3230 ng·h/mL
  AUC(0-inf): 3810 ng·h/mL
  CL/F: 83 mL/min/kg
  Cmax: 163 ± 65.6 ng/mL
  Tmax: 2.43 ± 1.13 h
  Vd/F: 68.2 ± 44.6 L/kg
  half-life: 9.43 ± 4.77 h
[2]; [5]
  AUC(0-t): 1370 ng·h/mL
  AUC(0-inf): 1390 ng·h/mL
  CL/F: 221 mL/min/kg
  Cmax: 95.4 ± 26.4 ng/mL
  Tmax: 1.64 ± 1.18 h
  Vd/F: 165 ± 125 L/kg
  half-life: 7.89 ± 2.76 h
[2]; [6]
  AUC(0-t): 1730 ng·h/mL
  AUC(0-inf): 1970 ng·h/mL
  CL/F: 145 mL/min/kg
  Cmax: 96.5 ± 39 ng/mL
  Tmax: 11.6 ± 11.7 h
  Vd/F: 105 ± 73.6 L/kg
  half-life: 9.63 ± 8.92 h
[2]; [7]
  AUC(0-t): 2890 ng·h/mL
  AUC(0-inf): 3710 ng·h/mL
  CL/F: 110 mL/min/kg
  Cmax: 154 ± 62.7 ng/mL
  Tmax: 16.3 ± 14.1 h
  Vd/F: 49.9 ± 33.6 L/kg
  half-life: 5.75 ± 3.22 h
[3]; [5]
  AUC(0-t): 3300 ng·h/mL
  AUC(0-inf): 3460 ng·h/mL
  CL/F: 87.2 mL/min/kg
  Cmax: 194 ± 48.8 ng/mL
  Tmax: 5.14 ± 8.32 h
  Vd/F: 83.2 ± 30.5 L/kg
  half-life: 11.9 ± 5.16 h
[3]; [6]
  AUC(0-t): 2480 ng·h/mL
  AUC(0-inf): 2510 ng·h/mL
  CL/F: 124 mL/min/kg
  Cmax: 143 ± 102 ng/mL
  Tmax: 8 ± 7.57 h
  Vd/F: 70.4 ± 38.6 L/kg
  half-life: 6.44 ± 2.34 h
[3]; [7]
  AUC(0-t): 4460 ng·h/mL
  AUC(0-inf): 8020 ng·h/mL
  CL/F: 51.3 mL/min/kg
  Cmax: 186 ± 74.4 ng/mL
  Tmax: 9.43 ± 10.2 h
  Vd/F: 90.3 ± 85 L/kg
  half-life: 29.1 ± 28.9 h
[4]; [8]
  AUC(0-t): 65.9 ± 27.6 ng·h/mL
  AUC(0-inf): 65.9 ± 27.6 ng·h/mL
  CL/F: 3090 mL/min/kg
  Cmax: 9.48 ± 3.93 ng/mL
  Tmax: 5.17 ± 1.33 h
  Vd/F: 675 ± 273 L/kg
  half-life: 2.62 ± 0.94 h
[4]; [9]
  AUC(0-t): 198 ± 121 ng·h/mL
  AUC(0-inf): 203 ± 133 ng·h/mL
  CL/F: 1150 mL/min/kg
  Cmax: 21.8 ± 8 ng/mL
  Tmax: 7.33 ± 2.42 h
  Vd/F: 375 ± 140 L/kg
  half-life: 4.44 ± 2.79 h
[4]; [10]
  AUC(0-t): 153 ± 175 ng·h/mL
  AUC(0-inf): 153 ± 175 ng·h/mL
  CL/F: 2060 mL/min/kg
  Cmax: 8.73 ± 7.55 ng/mL
  Tmax: 8.67 ± 2.73 h
  Vd/F: 582 ± 299 L/kg
  half-life: 3.21 ± 0.24 h
[4]; carvedilol 5 mg/kg + aumolertinib 11 mg/kg oral vs aumolertinib alone
  increase of AUC(0-t) after combination with carvedilol: more than 3 time
CYP3A4.1
  Clint: 0.58 μL/min/pmol CYP
CYP3A4.1; human, recombinant CYP3A4.1 cell microsomes (Sf21 insect cells)
  Km: 3.2 µM

— PMC11157048 (Frontiers in Pharmacology, 2024)
